For this experiment, the system named is HBV cccDNA (HBeAg level in HepDES19 cells). Nature of the experiment: Engineered HepDES19 primary screen assay (HBeAg ELISA as surrogate marker for cccDNA). In kind it is cell-based. As to conditions: Hepatitis B virus, HepDES19, 120 h. The source says:
The assay was employed to screen for novel HBV cccDNA inhibitors. HepDES19 is a HBV cccDNA-producing cell line. In this cell line, HBeAg in the cell culture supernatant as surrogate marker, as HBeAg production depends on cccDNA level and activity. HepDES19 is an engineered cell line which contains a 1.1 unit length HBV genome, and pgRNA transcription from the transgene is controlled by Tetracycline (Tet). In the absence of Tet, pgRNA transcription will be induced, but HBV e antigen (HBeAg) could not be produced from this pgRNA due to very short leader sequence before the HBeAg start codon and the start codon is disrupted. Only after cccDNA is formed, the missing leader sequence and start codon mutation would be restored from the 3′-terminal redundancy of pgRNA, and then HBeAg could be synthesized. Therefore, HBeAg could be used as a surrogate marker for cccDNA (Zhou, T. et al., Antiviral Res. (2006), 72(2), 116-124; Guo, H. et al., J. Virol. (2007), 81(22), 12472-12484).
HepDES19 cells were seeded at 2×10^6 cells per T150 flask and cultured with the culture medium (Dulbecco's Modified Eagle Medium: Nutrient Mixture F-12 [DMEM-F12, Gibco Cat. 11320-82], 10% Fetal Bovine Serum [FBS, Clontech Cat. 631101], 0.1 mM Non-Essential Amino Acids Solution [NEAA, Gibco Cat. 11140-050], 50 μg/mL Penicillin-Streptomycin [PS, Invitrogen Cat. 15140-163], 500 μg/mL Geneticin [G418, Invitrogen Cat. 10131-027]) containing 3 μg/mL Tet (Sigma, Cat. 87128) for 5 days. Cells were then seeded at 4×10^6 cells per T150 in the same culture medium as described above in the absence of Tet for 8 days. Cells were then harvested and frozen at density of 2×10^6 cells per mL. For compound testing, the frozen cells were thawed and seeded into 96-well plates at a density of 6×10^4 cells per well. At 24 hrs after seeding, half log serial dilutions of compounds made with Dimethyl sulfoxide (DMSO, Sigma, Cat. D2650) were further diluted with the same culture medium as described above before they were added to the cells to reach desired final compound concentrations and 1% DMSO concentration. Plates were then incubated at 37° C. for another 5 days before measurement of HBeAg level and cell viability. Intracellular HBeAg level were measured with enzyme-linked immunosorbent assay (ELISA) kit (Shanghai Kehua Diagnostic Medical Products Co., Ltd). Cell viability was assessed using Cell Counting Kit-8 (Donjindo, Cat. CK04-20). IC50 values were derived from the dose-response curve using 4 parameter logistic curve fit method.
The compounds of the present invention were tested for their capacity to inhibit extracellular HBeAg level as described herein.
(In general: ELISA stands for enzyme-linked immunosorbent assay.)

By pIC50 is commonly meant the negative decadic logarithm of the IC50, by convention in mol/L.

pIC50: −log10 of the molar value.

In turn, `Clc1cccc2cnc(-c3ccc(Br)cc3)nc12` [Example 1, 2-(4-Bromophenyl)-8-chloroquinazoline] gave a pIC50 of 7.00. Under `Clc1cccc2cnc(-c3cccc(Br)c3)nc12` [Example 2, 2-(3-Bromophenyl)-8-chloroquinazoline] stands 6.44. On to `Cc1nc(-c2cccc(C(F)(F)F)c2)nc2cc(Br)ccc12` [Example 3, 7-Bromo-4-methyl-2-[3-(trifluoromethyl)phenyl]quinazoline], for which the pIC50 was 6.12. Then `Cc1nc(-c2cccc(Br)c2)nc2cc(C(F)(F)F)c(Cl)cc12` [Example 4, 2-(3-Bromophenyl)-6-chloro-4-methyl-7-(trifluoromethyl)quinazoline], with 5.44; and `Oc1ccc(-c2ncc3cccc(Cl)c3n2)cc1` [Example 5, 4-(8-Chloroquinazolin-2-yl)phenol], with 5.36.

`COC(=O)c1cccc(COc2ccc(-c3ncc4cccc(Cl)c4n3)cc2)c1` [Example 6, Methyl 3-((4-(8-chloroquinazolin-2-yl)phenoxy)methyl)benzoate] showed a pIC50 of 5.21. Under `O=C(O)c1cccc(COc2ccc(-c3ncc4cccc(Cl)c4n3)cc2)c1` [Example 7, 3-((4-(8-Chloroquinazolin-2-yl)phenoxy)methyl)benzoic acid] stands 6.66; under `Cc1nc(-c2ccc(OCc3cccc(C(=O)O)c3)cc2)nc2c(Cl)cccc12` [Example 8, 3-((4-(8-Chloro-4-methylquinazolin-2-yl)phenoxy)methyl)benzoic acid], 6.34. For `Cc1nc(-c2ccc(OCCO)cc2)nc2c(Cl)cccc12` [Example 9, 2-[4-(8-Chloro-4-methyl-quinazolin-2-yl)phenoxy]ethanol], the negative logarithm of the IC50 (pIC50) was 5.71. `COC(=O)COCCOc1ccc(-c2nc(C)c3cccc(Cl)c3n2)cc1` [Example 10, Methyl 2-[2-[4-(8-chloro-4-methyl-quinazolin-2-yl)phenoxy]ethoxy]acetate] had a negative logarithm of the IC50 (pIC50) of 5.98. Compared with the last molecule, the pIC50 is 0.27 log units higher. Under `Cc1nc(-c2ccc(OCCOCC(=O)O)cc2)nc2c(Cl)cccc12` [Example 11, 2-[2-[4-(8-Chloro-4-methyl-quinazolin-2-yl)phenoxy]ethoxy]acetic acid] stands 5.35; under `Cc1nc(-c2ccc(OCCO[C@H]3C[C@@H](C(=O)O)C3)cc2)nc2c(Cl)cccc12` [Example 12, cis-3-[2-[4-(8-Chloro-4-methyl-quinazolin-2-yl)phenoxy]ethoxy]cyclobutanecarboxylic acid], 7.20; under `Cc1nc(-c2ccc(Cl)cc2)nc2c(Cl)cccc12` [Example 13, 8-Chloro-2-(4-chlorophenyl)-4-methylquinazoline], 5.99. `Cc1nc(-c2ccc(OCCOCC(=O)O)cc2)nc2cc(C(F)(F)F)ccc12` [Example 14, 2-(2-(4-(4-Methyl-7-(trifluoromethyl)quinazolin-2-yl)phenoxy)ethoxy)acetic acid] had a pIC50 of 4.52. Compared with the last molecule, the pIC50 is 1.47 log units lower. As for `Cc1nc(-c2ccc(OCCOC3CC(C(=O)O)C3)cc2)nc2cc(C(F)(F)F)ccc12` (stereo not drawn) [Example 15, 3-(2-(4-(4-Methyl-7-(trifluoromethyl)quinazolin-2-yl)phenoxy)ethoxy) cyclobutanecarboxylic acid], the pIC50 is 7.22. In turn, `COCc1nc(-c2cccc(Br)c2)nc2cc(C(F)(F)F)ccc12` [Example 16, 2-(3-Bromophenyl)-4-(methoxymethyl)-7-(trifluoromethyl)quinazoline] showed a pIC50 of 5.62. Then `CN(C)Cc1nc(-c2cccc(Br)c2)nc2cc(C(F)(F)F)ccc12` [Example 17, 1-(2-(3-Bromophenyl)-7-(trifluoromethyl)quinazolin-4-yl)-N,N-dimethylmethanamine], with 5.33; and `FC(F)(F)c1ccc2c(CN3CCOCC3)nc(-c3cccc(Br)c3)nc2c1` [Example 18, 4-((2-(3-Bromophenyl)-7-(trifluoromethyl)quinazolin-4-yl)methyl)morpholine], with 5.71. Under `OCc1nc(-c2cccc(Br)c2)nc2cc(C(F)(F)F)ccc12` [Example 20, (2-(3-Bromophenyl)-7-(trifluoromethyl)quinazolin-4-yl)methanol] stands 5.44; under `OCc1nc(-c2ccc(Cl)cc2)nc2c(Cl)cccc12` [Example 21, (8-Chloro-2-(4-chlorophenyl)quinazolin-4-yl)methanol], 7.03; under `Cc1nc(-c2cccc(CO)c2)nc2cc(C(F)(F)F)ccc12` [Example 22, (3-(4-Methyl-7-(trifluoromethyl)quinazolin-2-yl)phenyl)methanol], 5.15. Take `Cc1nc(-c2ccc(Cl)nc2)nc2c(Cl)cccc12` [Example 23, 8-Chloro-2-(6-chloropyridin-3-yl)-4-methylquinazoline]: the pIC50 is 6.66. Then `Clc1ccc(-c2ncc3cccc(Cl)c3n2)cn1` [Example 24, 8-Chloro-2-(6-chloropyridin-3-yl)quinazoline], with 7.03. Under `Oc1ccc(-c2ncc3cccc(Cl)c3n2)cn1` [Example 25, 5-(8-Chloroquinazolin-2-yl)pyridin-2-ol] stands 5.33; under `CN(C)c1ccc(-c2ncc3cccc(Cl)c3n2)cn1` [Example 26, 5-(8-Chloroquinazolin-2-yl)-N,N-dimethylpyridin-2-amine], 7.04.

On to `Clc1cccc2cnc(-c3ccc(N4CCOCC4)nc3)nc12` [Example 27, 4-(5-(8-Chloroquinazolin-2-yl)pyridin-2-yl)morpholine], for which the negative logarithm of the IC50 (pIC50) is 6.23. Under `OCCN(CCO)c1ccc(-c2ncc3cccc(Cl)c3n2)cn1` [Example 28, 2,2′-((5-(8-Chloroquinazolin-2-yl)pyridin-2-yl)azanediyl)diethanol] stands 6.52. Then `COC(=O)C1CCN(c2ccc(-c3ncc4cccc(Cl)c4n3)cn2)CC1` [Example 29, Methyl 1-(5-(8-chloroquinazolin-2-yl)pyridin-2-yl)piperidine-4-carboxylate], with 5.91. With `O=C(O)C1CCN(c2ccc(-c3ncc4cccc(Cl)c4n3)cn2)CC1` [Example 30, 1-(5-(8-chloroquinazolin-2-yl)pyridin-2-yl)piperidine-4-carboxylic acid], the pIC50 is 5.12. Then `O=C(O)c1nc(-c2cccc(Br)c2)nc2cc(C(F)(F)F)ccc12` [Example 31, 2-(3-Bromo-phenyl)-7-trifluoromethyl-quinazoline-4-carboxylic acid], with 4.75.

As for `COC(=O)c1nc(-c2cccc(Br)c2)nc2cc(C(F)(F)F)ccc12` [Example 32, Methyl 2-(3-bromophenyl)-7-(trifluoromethyl)quinazoline-4-carboxylate], the pIC50 was 5.21. Under `COc1ccc(-c2nc(C(=O)O)c3cccc(Cl)c3n2)cc1` [Example 33, 8-Chloro-2-(4-methoxyphenyl)quinazoline-4-carboxylic acid] stands 5.11; under `COc1ccc(-c2nc(C(N)=O)c3cccc(Cl)c3n2)cc1` [Example 34, 8-chloro-2-(4-methoxyphenyl)quinazoline-4-carboxamide], 5.65; under `COc1ccc(-c2nc(C(=O)NCCO)c3cccc(Cl)c3n2)cc1` [Example 35, 8-Chloro-N-(2-hydroxyethyl)-2-(4-methoxyphenyl)quinazoline-4-carboxamide], 4.79. Molecule `COc1ccc(-c2ncc3cccc(Cl)c3n2)cc1` [Example 36, 8-Chloro-2-(4-methoxyphenyl)quinazoline] gave a pIC50 of 6.74. Then `O=C(O)c1nc(-c2ccc(Br)cc2)nc2c(Cl)cccc12` [Example 37, 2-(4-Bromophenyl)-8-chloroquinazoline-4-carboxylic acid], with 5.65. Then `CCOC(=O)c1nc(-c2ccc(Br)cc2)nc2c(Cl)cccc12` [Example 38, ethyl 2-(4-bromophenyl)-8-chloro-quinazoline-4-carboxylate], with 5.94; and `O=C(NCCCl)c1nc(-c2ccc(Br)cc2)nc2c(Cl)cccc12` [Example 39, 2-(4-Bromophenyl)-8-chloro-N-(2-chloroethyl)quinazoline-4-carboxamide], with 5.93; and `Cc1nc(-c2ccc(Br)cc2)nc2c(Cl)cccc12` [Example 40, 2-(4-Bromophenyl)-8-chloro-4-methyl-quinazoline], with 7.09.

The record behind these values is patent publication US20220348549A1 (Hoffmann-La Roche Inc., priority 2019, published 2022).
